This note sets out measurements from patent US10087188B2, “Benzamide imidazopyrazine Btk inhibitors” (MERCK SHARP & DOHME CORP., priority 2014, dated 2018).

Sequence of BTK enzyme (recombinant full-length BTK, hBTK) (Q06187 whole entry): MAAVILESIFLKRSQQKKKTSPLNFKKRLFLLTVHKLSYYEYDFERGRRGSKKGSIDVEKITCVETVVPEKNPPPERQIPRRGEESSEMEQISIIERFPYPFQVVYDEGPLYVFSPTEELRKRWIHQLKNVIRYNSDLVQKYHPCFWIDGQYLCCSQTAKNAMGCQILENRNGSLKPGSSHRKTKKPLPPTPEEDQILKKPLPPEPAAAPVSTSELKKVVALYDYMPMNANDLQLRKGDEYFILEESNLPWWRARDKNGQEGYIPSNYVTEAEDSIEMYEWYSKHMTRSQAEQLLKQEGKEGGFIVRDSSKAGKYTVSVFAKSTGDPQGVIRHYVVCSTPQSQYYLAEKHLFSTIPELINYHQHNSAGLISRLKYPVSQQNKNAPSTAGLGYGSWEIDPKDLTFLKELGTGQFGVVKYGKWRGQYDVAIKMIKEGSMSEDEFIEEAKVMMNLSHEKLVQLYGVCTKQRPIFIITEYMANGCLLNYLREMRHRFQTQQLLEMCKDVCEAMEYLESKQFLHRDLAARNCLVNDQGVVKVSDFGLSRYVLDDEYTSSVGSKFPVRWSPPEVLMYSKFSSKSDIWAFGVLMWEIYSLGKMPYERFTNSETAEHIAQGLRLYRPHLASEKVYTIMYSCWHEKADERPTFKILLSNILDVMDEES

One test addresses BTK enzyme (recombinant full-length BTK, hBTK) (Homo sapiens (Human), UniProt Q06187). Put plainly: Btk enzyme activity assay, LANCE TR-FRET. Conditions: 50 pM hBTK, 2 μM biotin-A5-peptide, 25 μM ATP; 60 minute compound & enzyme incubation; read-out: BTK binding IC50. It is filed as biochemical. As for the experimental part:
Btk Enzyme Activity Assay Methods
BTK enzymatic activity was determined with the LANCE (Lanthanide Chelate Excite) TR-FRET (Time-resolved fluorescence resonance energy transfer) assay. […] After 60 minutes incubation with detection reagents, reaction plates were read on a PerkinElmer EnVision plate reader using standard TR-FRET protocol.
On to `Nc1nccn2c([C@H]3CCC[C@@H](C(=O)O)C3)nc(-c3ccc(C(=O)Nc4cc(C5CC5)ccn4)cc3)c12` [Example 4, (1R,3S)-3-(8-amino-1-{4-[(4-cyclopropyl-pyridin-2-yl)carbamoyl]phenyl}imidazo [1,5-a]pyrazin-3-yl)cyclohexane-carboxylic acid], for which the half-maximal inhibitory concentration (IC50) amounted to 0.0295 µM. With `COc1cc(C(=O)Nc2cc(C(F)(F)F)ccn2)ccc1-c1nc([C@H]2CCC[C@@H](C(=O)O)C2)n2ccnc(N)c12` [Example 5, (1R,3S)-3-[8-amino-1-(2-methoxy-4-{[4-(trifluoromethyl)pyridin-2-yl]carbamoyl}phenyl)imidazo [1,5-a]pyrazin-3-yl]cyclohexane-carboxylic acid], the IC50 was found to be 0.0409 µM.

For the molecule `CCc1ccnc(NC(=O)c2ccc(-c3nc([C@@H]4CCC[C@H](C(=O)O)C4)n4ccnc(N)c34)cc2)c1` [Example 7, (1S,3R)-3-(8-amino-1-{4-[(4-ethylpyridin-2-yl)carbamoyl]phenyl}imidazo [1,5-a]pyrazin-3-yl)cyclohexane-carboxylic acid], the half-inhibitory concentration (IC50) stood at 0.0014 µM.

For the molecule `Nc1nccn2c([C@@H]3CCC[C@H](C(=O)O)C3)nc(-c3ccc(C(=O)Nc4cc(C5CC5)ccn4)cc3)c12` [Example 8, (1S,3R)-3-(8-amino-1-{4-[(4-cyclopropyl-pyridin-2-yl)carbamoyl]phenyl}imidazo [1,5-a]pyrazin-3-yl)cyclohexane-carboxylic acid], the 50% inhibitory concentration (IC50) amounted to 0.0021 µM. On the same count and under the same terms, for `COc1cc(C(=O)Nc2cc(C(F)(F)F)ccn2)ccc1-c1nc([C@@H]2CCC[C@H](C(=O)O)C2)n2ccnc(N)c12` [Example 11, (1S,3R)-3-[8-amino-1-(2-methoxy-4-{[4-(trifluoromethyl)pyridin-2-yl]carbamoyl}phenyl)imidazo [1,5-a]pyrazin-3-yl]cyclohexane-carboxylic acid] the value was 0.0016 µM. As for `Nc1nccn2c([C@@H]3CCC[C@H](C(=O)O)C3)nc(-c3ccc(C(=O)Nc4cc(OC5CC5)ccn4)cc3)c12` [Example 12, (1S,3R)-3-[8-amino-1-(4-{[4-(cyclopropyloxy)pyridin-2-yl]carbamoyl}phenyl)imidazo [1,5-a]pyrazin-3-yl]cyclohexane-carboxylic acid], the IC50 stood at 0.0017 µM. For the molecule `Nc1nccn2c([C@H]3CCN[C@@H](C(=O)O)C3)nc(-c3ccc(C(=O)Nc4cc(C(F)(F)F)ccn4)cc3)c12` [Example 31, (2R,4S)-4-[8-amino-1-(4-{[4-(trifluoromethyl)pyridin-2-yl]carbamoyl}phenyl)imidazo[1,5-a]pyrazin-3-yl]piperidine-2-carboxylic acid], the concentration for half-maximal inhibition (IC50) stood at 0.0026 µM.

A further test concerns HeLa cells. In words: [3H] Adenosine uptake assay. Format: cell-based. The note with it: Homo sapiens, HeLa, accumulation of tritiated adenosine into HeLa cells; compound concentration range 10 μM to 0.032 nM; read-out: ADU inhibition IC50 (adenosine uptake inhibition potency). As for the experimental part: Compounds are also screen in an adenosine uptake functional cellular assay using the protocol described below:
[^3H] Adenosine Uptake Assay Methods
Adenosine uptake activity was determined by monitoring the accumulation of tritiated adenosine into HeLa cells (ATCC catalog #CCL-2) using a PMT-based radiometric detection instrument. […] These cells were incubated overnight at 37° C. in a humidified atmosphere with 5% (v/v) CO2. After this time the growth medium was removed and replaced with 40 μL assay medium comprising: Hanks balanced salts solution (HBSS; Thermo Fisher Catalog #SH30268.01)+5% (v/v) FBS. Compound stock solutions in DMSO were diluted in assay medium to 2.5× final compound concentration maintaining a constant DMSO concentration of 0.25% (v/v). 40 μL of compound in assay medium was dispensed into individual wells of the Cytostar-T plates and the plates were incubated for 30 minutes under ambient laboratory conditions. Following this incubation, 20 μL of 500 nM[^3H] adenosine (American Radiolabeled Chemicals Inc. Catalog #ART0287) in assay medium was added and incubated for a further 60 minutes under ambient laboratory conditions. The amount of radiolabel accumulation was then determined using a Perkin Elmer Topcount NXT microplate reader. In brief, HeLa cells adhere to the bottom of the Cytostar-T plate, uptake of [^3H]adenosine into these cells brings the radiolabel into sufficient proximity to excite the scintillant in the base of the plates. These events are captured by single PMT, time-resolved coincidence counting. IC50 values were determined by 4 parameter robust fit of counts per second values vs. (Log10) compound concentrations.
Turning to `Nc1nccn2c([C@@H]3CC[C@@H](CC(=O)O)C3)nc(-c3ccc(C(=O)Nc4cc(C(F)(F)F)ccn4)cc3)c12` [Example 55, {(1R,3R)-3-[8-amino-1-(4-{[4-(trifluoromethyl)pyridin-2-yl]carbamoyl}phenyl)imidazo[1,5-a]pyrazin-3-yl]cyclopentyl}acetic acid], the IC50 worked out at 7.98 µM.

Still in this test, the particulars now being: Homo sapiens; accumulation of tritiated adenosine into HeLa cells; compound concentration range 10 μM to 0.032 nM; read-out: ADU inhibition IC50 (adenosine uptake inhibition potency).
For `Nc1nccn2c([C@H]3CC[C@@H](C(=O)O)C3)nc(-c3ccc(C(=O)Nc4cc(C(F)(F)F)ccn4)cc3)c12` [Example 14, (1R,3S)-3-(8-amino-1-(4-((4-(trifluoromethyl)pyridin-2-yl)carbamoyl)phenyl)imidazo[1,5-a]pyrazin-3-yl)cyclopentanecarboxylic acid], the IC50 was determined as 2.5 µM.

As to `C[C@]1(C(=O)O)CC[C@@H](c2nc(-c3ccc(C(=O)Nc4cc(C(F)(F)F)ccn4)cc3)c3c(N)nccn23)C1` [Example 37, (1S,3R)-3-[8-amino-1-(4-{[4-(trifluoromethyl)pyridin-2-yl]carbamoyl}phenyl)imidazo[1,5-a]pyrazin-3-yl]-1-methylcyclopentane-carboxylic acid], the half-inhibitory concentration (IC50) came to 8.55 µM. For `C[C@@]1(C(=O)O)CC[C@H](c2nc(-c3ccc(C(=O)Nc4cc(C(F)(F)F)ccn4)cc3)c3c(N)nccn23)C1` [Example 40, (1R,3S)-3-[8-amino-1-(4-{[4-(trifluoromethyl)pyridin-2-yl]carbamoyl}phenyl)imidazo[1,5-a]pyrazin-3-yl]-1-methylcyclopentane-carboxylic acid], the 50% inhibitory concentration (IC50) amounted to 5.28 µM.

On to `CC(C)[C@]1(C(=O)O)CC[C@@H](c2nc(-c3ccc(C(=O)Nc4cc(C(F)(F)F)ccn4)cc3)c3c(N)nccn23)C1` [Example 46, (1S,3R)-3-[8-amino-1-(4-{[4-(trifluoromethyl)pyridin-2-yl]carbamoyl}phenyl)imidazo[1,5-a]pyrazin-3-yl]-1-(1-methylethyl) cyclopentane carboxylic acid], for which the half-maximal inhibitory concentration (IC50) was 4 µM. As for `CC(C)[C@@]1(C(=O)O)CC[C@H](c2nc(-c3ccc(C(=O)Nc4cc(C(F)(F)F)ccn4)cc3)c3c(N)nccn23)C1` [Example 48, (1R,3S)-3-[8-amino-1-(4-{[4-(trifluoromethyl)pyridin-2-yl]carbamoyl}phenyl)imidazo[1,5-a]pyrazin-3-yl]-1-(1-methylethyl) cyclopentane-carboxylic acid], the IC50 came out at 3.76 µM.

In the case of `CC(C)[C@]1(C(=O)O)CC[C@H](c2nc(-c3ccc(C(=O)Nc4cc(C(F)(F)F)ccn4)cc3)c3c(N)nccn23)C1` [Example 49, (1S,3S)-3-[8-amino-1-(4-{[4-(trifluoromethyl)pyridin-2-yl]carbamoyl}phenyl)imidazo[1,5-a]pyrazin-3-yl]-1-(1-methylethyl) cyclopentane-carboxylic acid], the IC50 was 0.922 µM. Same read-out and setting: as for `CC(C)[C@]1(C(=O)O)CCC[C@@H](c2nc(-c3ccc(C(=O)Nc4cc(C(F)(F)F)ccn4)cc3)c3c(N)nccn23)C1` [Example 89, (1S,3R)-3-[8-amino-1-(4-{[4-(trifluoromethyl)pyridin-2-yl]carbamoyl}phenyl)imidazo[1,5-a]pyrazin-3-yl]-1-(1-methylethyl) cyclohexane-carboxylic acid], the figure is 3.41 µM. The same measure, in the same setting: as for `CC(C)[C@H]1CC[C@@H](c2nc(-c3ccc(C(=O)Nc4cc(C(F)(F)F)ccn4)cc3)c3c(N)nccn23)C[C@H]1C(=O)O` [Example 99, (1R,2R,5R)-5-[8-amino-1-(4-{[4-(trifluoromethyl)pyridin-2-yl]carbamoyl}phenyl)imidazo[1,5-a]pyrazin-3-yl]-2-(1-methylethyl) cyclohexane-carboxylic acid], the figure is 2.51 µM; as for `Nc1nccn2c([C@@H]3C[C@@H]4[C@H](C3)[C@@H]4C(=O)O)nc(-c3ccc(C(=O)Nc4cc(C(F)(F)F)ccn4)cc3)c12` [Example 124, (1R,3r,5S,6s)-3-[8-amino-1-(4-{[4-(trifluoromethyl)pyridin-2-yl]carbamoyl}phenyl)imidazo[1,5-a]pyrazin-3-yl]bicyclo[3.1.0] hexane-6-carboxylic acid], 6.12 µM; as for `Nc1nccn2c([C@@H]3C[C@@H]4[C@H](C3)[C@H]4C(=O)O)nc(-c3ccc(C(=O)Nc4cc(C(F)(F)F)ccn4)cc3)c12` [Example 125, (1R,3R,5S,6r)-3-[8-amino-1-(4-{[4-(trifluoromethyl)pyridin-2-yl]carbamoyl}phenyl)imidazo[1,5-a]pyrazin-3-yl]bicyclo[3.1.0]hexane-6-carboxylic acid], 2.69 µM. Still for that read-out and setting: as for `Nc1nccn2c([C@H]3C[C@@H]4[C@H](C3)[C@H]4C(=O)O)nc(-c3ccc(C(=O)Nc4cc(C(F)(F)F)ccn4)cc3)c12` [Example 139, (1R,3R,5S,6r)-3-[8-amino-1-(4-{[4-(trifluoromethyl)pyridin-2-yl]carbamoyl}phenyl)imidazo[1,5-a]pyrazin-3-yl]bicyclo[3.1.0] hexane-6-carboxylic acid], the figure is 10 µM; as for `Nc1nccn2c([C@H]3C[C@@H]4[C@H](C3)[C@@H]4C(=O)O)nc(-c3ccc(C(=O)Nc4cc(C(F)(F)F)ccn4)cc3)c12` [Example 140, (1R,3r,5S,6s)-3-[8-amino-1-(4-{[4-(trifluoromethyl)pyridin-2-yl]carbamoyl}phenyl)imidazo[1,5-a]pyrazin-3-yl]bicyclo[3.1.0] hexane-6-carboxylic acid], 10 µM. `C[C@]1(C(=O)O)CCC[C@@H](c2nc(-c3ccc(C(=O)Nc4cc(C(F)(F)F)ccn4)cc3)c3c(N)nccn23)C1` [Example 154, (1S,3R)-3-[8-amino-1-(4-{[4-(trifluoromethyl)pyridin-2-yl]carbamoyl}phenyl)imidazo[1,5-a]pyrazin-3-yl]-1-methylcyclohexane-carboxylic acid]: the concentration for half-maximal inhibition (IC50) is 10 µM. The same measure, in the same setting: for `Nc1nccn2c1c(-c1ccc(C(=O)Nc3cc(C(F)(F)F)ccn3)cc1)nc2[C@H]1CC[C@@H](C(=O)O)CC1` [Example 158, cis-4-[8-amino-1-(4-{[4-(trifluoromethyl)pyridin-2-yl]carbamoyl}phenyl)imidazo[1,5-a]pyrazin-3-yl]cyclohexane-carboxylic acid] the value was 10 µM.
